Test results taken from US20040138272A1, “1,4-Substituted cyclohexane derivatives” (priority 2002, published 2004).
pIC50: −log10 of the molar value. Entries after “also recorded” stand apart in the source; their conditions may differ. Where two headings read alike, the source gives them in different places. Values belong to the molecule of their own block, whether it stands above or below them.

What was measured:
[1] = cited from earlier work
PRK2 = PRK2 (Homo sapiens, UniProt Q16513); settings: cited from earlier work
PHK = settings: cited from earlier work
[2] = rat, in vivo, po, 30 mg/kg; cited from earlier work
MSK1 = MSK1 (Homo sapiens, UniProt O75582); settings: cited from earlier work
MAPKAP-K1b = MAPKAP-K1b (Oryctolagus cuniculus, UniProt A0A5F9C4L9); settings: cited from earlier work
[3] = tested on: PC12 cells on MAG substrates; experiment: Bioassay of PC12 neurite growth on growth inhibitory myelin-associated glycoprotein (MAG) substrates; format: cell-based; settings: Dihydrochloride; for neurite outgrowth on inhibitory MAG substrates (FIG. 4): PC12 cells, 0.31, 3.1 or 31 uM
Experimental: PC-12 cells (ATCC CRL-1721) typically extend neurites in response to NGF, but when plated on inhibitory substrates, this outgrowth is inhibited and the cells remain round. We tested the ability of the new compound to grow neurites when plated on inhibitory substrates.
We used PC12 cells obtained from the American Type Culture Collection. PC12 cells were grown in Dulbecco's modified eagle's medium (DMEM) with 10% horse serum and 5% fetal bovine serum. To test compounds for the ability to overcome growth inhibition, PC12 cells were collected by detaching with trypsin-EDTA (0.05%), then resuspended in DMEM, 1% FBS, and 50 ng/ml nerve growth factor before plating on MAG substrates. MAG used for substrates was purified from myelin after extraction in 1% octylglucoside and separation by ion exchange chromatography (McKerracher et al. 1994, Neuron 13:805-811). Test substrates were prepared as uniform substrates in 96-well plates by drying overnight in the laminar flow hood (Nalge Nunc, Naperville, Ill.). Plates were precoated with polylysine (100 μg/ml) for 3 hours at 37° C., then washed and dried approx. 1 hour. MAG was prepared as a substrate by drying down 8 μg of protein overnight. After plating on the MAG substrate, the cells were grown at 37 C. for two days in the presence or absence of test compound (BA1003, BA1016, BA1017) to allow neurite growth. Polylysine substrates were used as a positive control. Quantitative analysis of neurite outgrowth was with the aid of Northern Eclipse software (Empix Imaging, Mississauga, Ontario). Data analysis and statistics were with Microsoft Excel.
Referring to FIG. 4 there is shown a graph illustrative of experiments performed in triplicate testing the ability of BA-1003, BA-1016 and BA-1017 to overcome growth inhibition by MAG. PC12 cells were plated on MAG substrates alone (MAG) or MAG substrates in the presence of 0.31 uM, 3.1 um or 31 um concentrations of the test compound. The numbers of neurons that grew neurites were scored, and are shown as the percentage of neurite growth.

[4] = tested on: NG108-15 neuronal cell line; experiment: Rapid bioassay of neurite growth in NG108-15 cells; format: cell-based; settings: for neurite outgrowth (FIG. 2): NG108 cells, 3.1 to 31 μM
Experimental: When neurons are placed on inhibitory substrates in tissue culture, the neurons remain rounded. When an effective Rho kinase inhibitor is added to the neurons, the neurons are able to grow neurites on myelin substrates. The time that it takes for neurons to grow neurites after the addition of a Rho kinase inhibitor is about the same as the time that it takes for neurons to grow neurites if the neurons had been plated on growth permissive substrate such as laminin or polylysine, which time is typically 1 to 2 days in cell culture. An assessment of resulting neurite growth can be scored by visual means. If needed, a quantitative assessment of neurite growth can be performed. This involves measuring after a time such as 1 to 2 days the neurite length a) in control cultures where neurons are plated on myelin substrates and left untreated with Rho kinase inhibitor for such time, b) in positive control cultures, wherein for example neurons are plated on polylysine but left untreated with Rho kinase inhibitor for such time, and c) in cultures analogous to a) and b) that are treated with different concentrations of a Rho kinase inhibitor for such time. […] In this assay, NG108 cells are plated on plastic in the presence or absence of the test substance (a Rho kinase inhibitor). […] The relative efficacy can be assessed by fixing the cultures 5 hours after plating, and counting the number of cells that have grown neurites.
A rapid bioassay is used to determine the effect of a test compounds on the stimulation of neurite growth in vitro. A neuronal cell line, NG108-15 (ATCC HB-12317), is maintained in culture in Dulbecco's minimal essential medium (DMEM) supplemented with 10% fetal bovine serum, Penicillin/Streptomycin and HAT supplement (Gibco/BRL). For the bioassay, the cells are collected by trypsinisation and ressuspended in DMEM supplemented with 5% FBS, Penicillin/Streptomycin, HAT supplement and 0.25 mg/ml cAMP, adjusted to 1.0×10^4 cells/ml. The cells are plated into wells of a 96 well plate at 100 μls (1000 cells)/well. Cells are incubated 4 h at 37° C. and 5% CO2 in presence of small molecules or cethrin at a concentration of 1000 cells per well of a 96-wells plate in a final volume of 100 ul.
After incubation, cells are fixed by adding […] 16% PFA and 5.4 μls 2.5% glutaraldehyde to the media in each well. The wells are stained with cresyl violet 0.05% , 100 μls/well for 15 min. Cells with neurites (length≧one cell body) are counted using an inverted light microscope. The % neurite outgrowth is determined by calculating the number of cells with neurites over the total number of counted cells.

ROCK II = target: T1, ROCK II (Rattus norvegicus, UniProt Q62868); experiment: ROCK II kinase assay with [γ-32P] ATP and myelin basic protein substrate (FIG. 3); format: biochemical; settings: 100 μM ATP, 30 min at 30° C.
T1 construct: purchased Upstate (Lake Placid, N.Y.)
Source text: The ability of compounds to inhibit ROK activity may be tested in a cell-free assay system using recombinant ROK, radiaoactive ATP, and Myelin basic Protein (MBP). MBP is a highly phosphorylated protein, is inexpensive to buy in purified form, is phosphorylated by ROK, and is used as the assay substrate for phosphorylation. Recombinant ROK has been prepared from a number of sources. Overexpression in mammalian cells provides a convenient, easily renewed source of ROK activity. Measurement of Rho-associated kinase (ROK) activity is important to determine the potency of novel inhibitors. MBP is a substrate for ROK and a number of other protein kinases, making it useful both to quantitate ROK activity and to indicate the potency and specificity of novel inhibitors for ROK. […]
ROCK II was assayed in 20 mM MOPS, pH 7.2, 25 mM β-glycerophosphate, 5 mM EGTA, 1 mM sodium orthovanadate, 1 mM dithiothreitol with dephosphorylated myelin basic protein (MBP, 0.2 mg/ml) as substrate with or without BA-1016 or BA-1017. […] Assays were initiated by adding Mg^2+/ATP and terminated by spotting 40 μl of each reaction onto phosphocellulose paper (P81 paper, Whatman), followed by washes in 0.75% phosphoric acid to remove ATP and then dried, put in scintillation cocktail and counted to measure ^32P incorporation. Radioactivity is measured using a scintillation counter. […]

[5] = target: T2, human Rho kinase II (ROCK-II (h)) (Homo sapiens, UniProt O75116); experiment: Commercial inhibition assay with recombinant human ROCKII, IC50 curves (FIGS. 8, 9); format: biochemical
T2 construct: purchased
Source text: Referring to FIGS. 8 and 9 inhibiton of ROCKII activity and determination of IC50 may also be done throught the use of known (i.e. commercial) inhibition assays that use recombinant human ROCKII.

[6] = tested on: SK-MEL-1 human malignant melanoma; experiment: Thymidine uptake anti-proliferation assay, SK-MEL-1; format: cell-based
Experimental: (§1) The antiproliferative effects of BA-1037 were tested by a thymidine uptake assay with several different human cancer cell lines grown in culture. The cell lines tested were HEC-1B human adnocarcinoma, SK-MEL-1 human malignant melanoma, and Caco-2 human colorectal adenocarcinoma. The cells were seeded in a 96 well plate and after 2 hours the cells were treated with test BA-1037 compound or with control solutions. The control solutions were PBS as a negative control, and with complete medium plus the DMSO vehicle (at 0.1% or 1%). BA-1037 was added at three different concentrations: 1 uM, 10, uM or 100 uM. Each control solution and test solution was plated in triplicate for each cell line. The plate was incubated at 37 C. with 5% CO2 in a humidified atmosphere for approximately 54 hours. A volume of 0.02 ml of 3H-methy thymidine which contained 1.0 uCi was added to each well. The culture was incubated a further 18 hours. Using an automated cell harvestor the cells from each well were aspirated onto a glass microfiber filter. The cells were broken with distilled water to leave mainly the DNA on the filter. Each filter was placed in a scintillation counter (TopCount NXT). At appropriate settings for the 3H, each filter was counted for one minute. The results are expressed as CPM (counts per minute).

[7] = tested on: HEC-1B human adnocarcinoma; experiment: Thymidine uptake anti-proliferation assay, HEC-1B; format: cell-based; settings: 100 uM, versus DMSO and PBS controls; Dihydrochloride
Experimental: as §1

[8] = target: glycogen synthatase kinase 3 beta (GSKB) (Homo sapiens, UniProt P49841); experiment: GSK B kinase activity of compounds (FIG. 10); format: biochemical; settings: 10 uM
glycogen synthatase kinase 3 beta (GSKB), sequence (P49841 whole entry): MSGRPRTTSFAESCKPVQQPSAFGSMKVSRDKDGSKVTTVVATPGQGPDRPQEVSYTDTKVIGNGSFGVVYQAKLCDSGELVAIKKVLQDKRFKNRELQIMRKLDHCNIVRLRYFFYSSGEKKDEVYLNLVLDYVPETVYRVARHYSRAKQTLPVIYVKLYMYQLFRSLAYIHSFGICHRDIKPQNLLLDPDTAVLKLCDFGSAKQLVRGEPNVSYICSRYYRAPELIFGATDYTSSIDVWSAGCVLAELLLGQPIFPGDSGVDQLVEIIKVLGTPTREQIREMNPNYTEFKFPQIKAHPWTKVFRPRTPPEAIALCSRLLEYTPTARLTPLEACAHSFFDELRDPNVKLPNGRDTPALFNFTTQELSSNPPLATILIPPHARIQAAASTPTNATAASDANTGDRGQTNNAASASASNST

PRK2, sequence (Q16513 whole entry): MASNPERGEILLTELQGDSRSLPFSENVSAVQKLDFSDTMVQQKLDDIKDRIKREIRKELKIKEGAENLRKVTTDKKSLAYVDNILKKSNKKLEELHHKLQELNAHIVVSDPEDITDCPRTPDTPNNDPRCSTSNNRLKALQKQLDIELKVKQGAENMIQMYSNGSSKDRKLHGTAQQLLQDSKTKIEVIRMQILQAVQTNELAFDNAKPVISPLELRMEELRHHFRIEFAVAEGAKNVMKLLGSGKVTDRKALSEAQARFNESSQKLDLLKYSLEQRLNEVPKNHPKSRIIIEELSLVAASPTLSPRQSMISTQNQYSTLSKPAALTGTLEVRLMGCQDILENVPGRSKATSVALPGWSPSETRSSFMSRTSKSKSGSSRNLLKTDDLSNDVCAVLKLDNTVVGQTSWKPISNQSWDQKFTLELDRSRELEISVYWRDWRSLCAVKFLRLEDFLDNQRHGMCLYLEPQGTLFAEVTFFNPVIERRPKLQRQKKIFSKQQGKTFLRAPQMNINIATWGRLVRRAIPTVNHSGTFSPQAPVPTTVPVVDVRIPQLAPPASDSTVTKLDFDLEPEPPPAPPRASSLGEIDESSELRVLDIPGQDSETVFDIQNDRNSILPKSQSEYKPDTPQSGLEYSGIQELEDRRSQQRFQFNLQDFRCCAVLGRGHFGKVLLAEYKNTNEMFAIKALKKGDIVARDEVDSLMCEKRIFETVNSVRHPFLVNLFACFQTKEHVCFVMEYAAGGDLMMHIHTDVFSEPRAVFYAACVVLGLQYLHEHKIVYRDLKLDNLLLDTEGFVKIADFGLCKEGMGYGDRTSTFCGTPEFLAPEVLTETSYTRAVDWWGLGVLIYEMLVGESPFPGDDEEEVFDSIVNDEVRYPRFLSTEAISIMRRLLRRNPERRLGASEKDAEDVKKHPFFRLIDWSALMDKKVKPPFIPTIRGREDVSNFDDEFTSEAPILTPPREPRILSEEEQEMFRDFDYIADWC
MAPKAP-K1b, sequence (A0A5F9C4L9 1-740): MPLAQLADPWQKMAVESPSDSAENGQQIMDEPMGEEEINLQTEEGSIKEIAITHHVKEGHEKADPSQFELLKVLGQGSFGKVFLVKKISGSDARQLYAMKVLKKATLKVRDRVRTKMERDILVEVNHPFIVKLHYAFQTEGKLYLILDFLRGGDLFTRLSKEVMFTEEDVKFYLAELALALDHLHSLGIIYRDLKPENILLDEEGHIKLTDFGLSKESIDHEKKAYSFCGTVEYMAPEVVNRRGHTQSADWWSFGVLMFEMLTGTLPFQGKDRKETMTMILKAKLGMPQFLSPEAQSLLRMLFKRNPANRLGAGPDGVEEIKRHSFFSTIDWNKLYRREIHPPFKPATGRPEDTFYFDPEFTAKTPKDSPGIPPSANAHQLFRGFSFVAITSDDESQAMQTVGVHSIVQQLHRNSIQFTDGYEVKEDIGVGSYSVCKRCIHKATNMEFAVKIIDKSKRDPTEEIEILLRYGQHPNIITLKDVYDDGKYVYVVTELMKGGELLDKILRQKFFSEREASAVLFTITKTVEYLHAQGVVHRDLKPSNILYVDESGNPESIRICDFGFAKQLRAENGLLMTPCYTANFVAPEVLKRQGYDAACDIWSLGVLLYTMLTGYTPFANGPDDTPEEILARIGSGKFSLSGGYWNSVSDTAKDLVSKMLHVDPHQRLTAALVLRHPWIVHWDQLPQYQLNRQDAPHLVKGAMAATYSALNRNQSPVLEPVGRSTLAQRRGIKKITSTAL
MSK1, sequence (O75582 whole entry, species assumed): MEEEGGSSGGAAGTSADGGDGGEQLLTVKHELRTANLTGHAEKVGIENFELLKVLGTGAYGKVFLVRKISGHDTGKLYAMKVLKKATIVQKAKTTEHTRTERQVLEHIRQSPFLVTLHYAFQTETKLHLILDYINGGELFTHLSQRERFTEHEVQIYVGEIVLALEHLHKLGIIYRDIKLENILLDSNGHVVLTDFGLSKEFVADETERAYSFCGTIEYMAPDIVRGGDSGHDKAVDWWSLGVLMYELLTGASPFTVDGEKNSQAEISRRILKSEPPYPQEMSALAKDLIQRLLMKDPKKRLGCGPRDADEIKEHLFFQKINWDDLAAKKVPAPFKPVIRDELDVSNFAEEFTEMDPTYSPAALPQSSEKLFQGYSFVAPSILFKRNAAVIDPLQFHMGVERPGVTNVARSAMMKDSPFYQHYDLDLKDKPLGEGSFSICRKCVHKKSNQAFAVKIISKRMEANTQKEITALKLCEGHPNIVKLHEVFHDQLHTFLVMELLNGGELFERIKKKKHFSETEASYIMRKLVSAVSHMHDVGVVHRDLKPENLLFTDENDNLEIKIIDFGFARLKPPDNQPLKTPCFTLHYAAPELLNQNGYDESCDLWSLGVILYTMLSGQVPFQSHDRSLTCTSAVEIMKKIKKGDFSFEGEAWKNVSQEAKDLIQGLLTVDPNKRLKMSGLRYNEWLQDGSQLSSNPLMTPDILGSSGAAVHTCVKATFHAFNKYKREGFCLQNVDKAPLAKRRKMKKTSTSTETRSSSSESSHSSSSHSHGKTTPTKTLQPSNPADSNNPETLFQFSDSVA
T2 sequence (O75116 whole entry): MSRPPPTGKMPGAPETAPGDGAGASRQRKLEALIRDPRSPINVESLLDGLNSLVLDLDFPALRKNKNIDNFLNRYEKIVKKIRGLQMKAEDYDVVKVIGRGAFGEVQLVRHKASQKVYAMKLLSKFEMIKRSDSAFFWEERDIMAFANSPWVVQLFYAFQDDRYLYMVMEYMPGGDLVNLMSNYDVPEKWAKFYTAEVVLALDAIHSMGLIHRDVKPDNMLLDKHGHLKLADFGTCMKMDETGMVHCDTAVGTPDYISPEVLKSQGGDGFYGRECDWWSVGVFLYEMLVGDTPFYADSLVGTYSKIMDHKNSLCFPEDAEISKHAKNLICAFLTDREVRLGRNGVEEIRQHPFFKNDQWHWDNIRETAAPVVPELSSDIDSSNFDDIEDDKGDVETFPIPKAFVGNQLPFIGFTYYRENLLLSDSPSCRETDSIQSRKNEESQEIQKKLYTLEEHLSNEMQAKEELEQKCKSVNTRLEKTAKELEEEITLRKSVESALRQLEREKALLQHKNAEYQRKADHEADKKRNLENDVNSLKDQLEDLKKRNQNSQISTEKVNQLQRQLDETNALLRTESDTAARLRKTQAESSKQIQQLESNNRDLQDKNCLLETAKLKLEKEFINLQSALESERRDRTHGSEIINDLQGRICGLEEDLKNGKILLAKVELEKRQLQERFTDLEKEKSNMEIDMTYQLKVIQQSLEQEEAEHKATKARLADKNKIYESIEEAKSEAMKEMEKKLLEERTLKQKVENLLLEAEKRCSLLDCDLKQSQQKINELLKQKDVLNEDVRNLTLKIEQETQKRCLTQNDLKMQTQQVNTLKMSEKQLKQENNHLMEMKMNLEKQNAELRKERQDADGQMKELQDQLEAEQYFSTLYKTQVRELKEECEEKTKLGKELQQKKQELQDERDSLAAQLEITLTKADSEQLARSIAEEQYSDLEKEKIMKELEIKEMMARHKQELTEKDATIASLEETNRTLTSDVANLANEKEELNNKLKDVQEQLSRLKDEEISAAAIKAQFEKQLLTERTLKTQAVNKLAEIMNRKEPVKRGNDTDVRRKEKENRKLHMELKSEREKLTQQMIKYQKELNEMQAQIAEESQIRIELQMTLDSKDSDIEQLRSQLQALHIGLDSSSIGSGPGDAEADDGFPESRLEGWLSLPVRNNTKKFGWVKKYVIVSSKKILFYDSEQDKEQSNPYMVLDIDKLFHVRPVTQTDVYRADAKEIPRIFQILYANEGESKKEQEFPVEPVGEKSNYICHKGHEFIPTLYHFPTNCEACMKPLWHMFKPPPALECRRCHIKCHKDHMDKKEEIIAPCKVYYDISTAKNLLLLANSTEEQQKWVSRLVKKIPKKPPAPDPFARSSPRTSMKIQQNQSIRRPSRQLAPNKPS
T1 sequence (Q62868 11-550 limits assumed): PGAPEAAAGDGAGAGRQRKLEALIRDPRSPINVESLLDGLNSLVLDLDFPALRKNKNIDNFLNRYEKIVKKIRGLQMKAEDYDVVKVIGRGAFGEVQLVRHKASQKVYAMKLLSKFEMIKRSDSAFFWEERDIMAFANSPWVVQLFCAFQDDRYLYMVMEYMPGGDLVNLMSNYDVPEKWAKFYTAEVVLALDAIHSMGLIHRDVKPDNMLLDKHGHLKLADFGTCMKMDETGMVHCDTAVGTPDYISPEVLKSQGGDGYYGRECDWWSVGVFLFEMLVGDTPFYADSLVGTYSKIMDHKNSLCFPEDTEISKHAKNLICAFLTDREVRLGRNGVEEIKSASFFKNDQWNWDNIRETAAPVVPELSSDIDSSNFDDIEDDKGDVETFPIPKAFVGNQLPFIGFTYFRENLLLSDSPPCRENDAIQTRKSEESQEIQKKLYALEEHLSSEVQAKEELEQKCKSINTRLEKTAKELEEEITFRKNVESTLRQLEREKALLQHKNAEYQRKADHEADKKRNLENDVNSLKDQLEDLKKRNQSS

SMILES: C[C@@H](N)[C@H]1CC[C@H](C(=O)Nc2ccncc2)CC1.Cl.Cl (relative stereo) [Y-27632, (R)-trans-4-(Ethan-1′-amino)-N-(4″-pyridyl)cyclohexane Carboxamide Dihydrochloride]
blood pressure ([1]; hypertensive rats): reduces blood pressure | blood pressure ([1]; normal rats): does not affect blood pressure | inhibition of PRK2 (PRK2): inhibits | inhibition of PHK (PHK): inhibits | toxicity [2]: not toxic | inhibition of MSK1 (MSK1): inhibits | inhibition of MAPKAP-K1b (MAPKAP-K1b): inhibits

SMILES: C=CC[C@@H](N)[C@H]1CC[C@H](C(=O)Nc2ccncc2)CC1.Cl.Cl (stereo in doubt) [BA-1003]
neurite outgrowth on inhibitory MAG substrates (FIG. 4) [3]: can promote neurite outgrowth; also recorded: able to overcome growth inhibition by MAG | neurite outgrowth (FIG. 2) [4]: promote neurite outgrowth

inhibition of ROCKII activity (FIG. 3) (ROCK II): inhibition of ROCKII activity
SMILES: C=CC[C@H](N)[C@H]1CC[C@H](C(=O)Nc2ccncc2)CC1.Cl.Cl (stereo in doubt) [BA-1017]
neurite outgrowth on MAG substrates at the lowest concentration tested ([3]; PC12 cells, 0.31 uM): better neurite outgrowth; also recorded: effective | neurite outgrowth on inhibitory MAG substrates (FIG. 4) [3]: can promote neurite outgrowth; also recorded: able to overcome growth inhibition by MAG | neurite outgrowth (FIG. 2) [4]: promote neurite outgrowth

pIC50 [5]: 5.19 | activity towards GSKB (FIG. 10) [8]: can exert activity
SMILES: CCCCCCCCNN[C@H]1CC[C@H](C(=O)Nc2ccncc2)CC1.Cl.Cl [BA-1037, trans-4-[N′-(Octyl)hydrazino]-N-(4′″-pyridyl)cyclohexane Carboxamide Dihydrochloride]
cell proliferation, all three doses ([6]; 1 uM, 10 uM and 100 uM, versus DMSO and PBS controls, Dihydrochloride): significantly blocked cell proliferation; also recorded: reduce cell proliferation | cell proliferation, highest concentration tested ([6]; 100 uM): complete arrest of cell proliferation | cell proliferation, highest dose tested [7]: significantly blocked cell proliferation; also recorded: completely block proliferation | neurite growth by bioassay, normalized to BA-1016 (FIG. 7) ([4]; 35 uM): equally well as BA-1016
